Assay results reported in US20220281835A1, “PHENOL DERIVATIVES FOR USE AS ANTIMICROBIAL, ANTIBACTERIAL, BACTERICIDE” (SPECIAL PRODUCT'S LINE S.P.A., priority 2019, published 2022).
Values after ≈ are worked out from the molar mass of the structure shown.

Experiments:
[1] = test system: Enterococcus faecalis strain 2 (collection); test: MIC/MBC broth-dilution (micromethod), CLSI; format: cell-based; conditions: for MBC: E. FAECALIS strain 2, kills 99,9% of initial population
Description: (§1) Determination of Minimal Inhibitory Concentration (MIC), Minimal Bactericidal Concentration (MBC), bactericidal curves and killing rate on Gram positive and Gram negative bacteria strains, for the evaluation of the bactericidal activity of compounds of example 1 (n. 1 to 14).
(§2) Sensitivity tests have been performed in broth-dilution (micromethod) with the purpose to test the possible bacteriostatic and/or bactericidal power in different compounds, in accordance with CLSI guidelines (Clinical and Laboratory Standards Institute). In details, phenotypic methods based on in vitro MIC and MBC determination have been performed on previously isolated bacterial strains, identified and characterized at the level of their antibiotic susceptibility profile. According to MIC and MBC data, the Killing Rate was calculated as the ratio between MBC and MIC on which basis it is possible to define the compounds tested as bactericides (killing rate=1-4), or bacteriostatic (killing rate >4).
(§3) Preparation of the solution containing molecules: for each molecule to be tested, solutions were made as DMSO Stock, with a concentration of 2.560 mg/ml, used to test 12 dilutions with the following scalar drug concentrations: 512-256-128-64-32-16-8-4-2-1-0.5-0.25 μg/ml. The scalar dilutions were prepared directly on plates by using Mueller Hinton Broth (MHB) as a solvent.
(§4) Bacterial suspension preparation: cryostrains preserved at −80° C. were recovered by incubation in growth medium (Brain Heart Infusion Broth, BHI) for 24-48 hours at 37° C. followed by passages in agar growth medium (Columbia Blood Agar). Colonies with less than 30 hours are suspended in MHB with the purpose to prepare a bacterial suspension with a turbidity of 0.5 MF, containing approximately 1.5×10^8 cfu/ml. This injection is additionally diluted in MHB until reaching a final concentration of 5×10^5 cfu/ml (range 3-7×10^5 cfu/ml). Identical volumes of this bacterial suspension are added on a plate, for each well containing drug scalar dilutions, to obtain a final concentration between 512 a 0.25 μg/ml. The set up of bacterial suspensions as well as the passage on slate has always been performed within 30 minutes, in order not to alter the concentration of the bacterial suspension. Simultaneously, check in broth-microdilution only with solvent (in order to exclude that the effect of growth inhibition might be due to the drug solution solvent), positive growth control in absence of DMSO and drug, and negative purity control only with injection broth are performed. As a consequence the slate is incubated at 37° C. for 24 and 48 hours in aerobes. The 24 hours MIC is considered as the minimum drug concentration able to inhibit bacterial growth, which makes it possible to observe the absence of bacterial growth and the absence of turbidity. The same observations are valid to evaluate 48 hours MIC. After the incubation, an equal volume of bacterial suspension from each well is plated on agar growth medium and incubated for 24-48 hours at a temperature of 37° C. in aerobes, in order to define the MBC after the incubation. The MBC is evaluated as the minimum concentration of drug able to kill the 99,9% of the initial bacterial population.
(§5) Bacterial strains: the bactericidal and/or bacteriostatic power of the synthesized compounds can be determined by using standard reference strains such as: • 1. S. Aureus ATCC 25923 res kan, tob, res streptogramine (sga-sgb, efflux), res mupirocina (at low level), res trimetoprim; • 2. S. Aureus strain 1 (collection) mec a+, res kan tob gen, res quinolones, lincosamides, res streptogramine (sga-sgb), mlsb+sa constituent, mlsb constituent, res mupirocine (low level), res trimetoprim; • 3. S. Aureus strain 2 (collection) acquired penicillinase, res kan tob, res streptogramine (sga-sgb, efflux), res mupirocine (low level), res trimetoprim; • 4. Enterococcus faecalis ATCC 51299 (str+gen res at high level, mlsb res, simil van b res); • 5. […]

[2] = test system: S. Aureus strain 1 (collection) mec a+; test: MIC/MBC broth-dilution (micromethod), CLSI; format: cell-based; conditions: Staphylococcus aureus; for MBC: kills 99,9% of initial population
Description: as §1
In details, phenotypic methods based on in vitro MIC and MBC determination have been performed on previously isolated bacterial strains, identified and characterized at the level of their antibiotic susceptibility profile. According to MIC and MBC data, the Killing Rate was calculated as the ratio between MBC and MIC on which basis it is possible to define the compounds tested as bactericides (killing rate=1-4), or bacteriostatic (killing rate >4).
as §3
as §4, with “The 24 hours MIC is considered as the minimum drug concentration able to inhibit bacterial growth, which makes it possible to observe the absence of bacterial growth and the absence of turbidity.” left out, “incubation.” for “incubation. The MBC is evaluated as the minimum concentration of drug able to kill the 99,9% of the initial bacterial population.”
Bacterial strains: the bactericidal and/or bacteriostatic power of the synthesized compounds can be determined by using standard reference strains such as: • 1. S. Aureus ATCC 25923 res kan, tob, res streptogramine (sga-sgb, efflux), res mupirocina (at low level), res trimetoprim; • 2. S. Aureus strain 1 (collection) mec a+, res kan tob gen, res quinolones, lincosamides, res streptogramine (sga-sgb), mlsb+sa constituent, mlsb constituent, res mupirocine (low level), res trimetoprim; • 3. S. Aureus strain 2 (collection) acquired penicillinase, res kan tob, res streptogramine (sga-sgb, efflux), res mupirocine (low level), res trimetoprim; • 4. Enterococcus faecalis ATCC 51299 (str+gen res at high level, mlsb res, simil van b res); • 5. Enterococcus faecalis strain 1 (collection) (str+kan res at high level str res at high level tetracycline res); • 6. Enterococcus faecalis strain 2 (collection) (kan res at high level); • 7. E. coli of Collection: RESISTANT to ampicilline, amox+ac clav, ampicillinr+sulbactam, cefalexine, cefuroxime, cefuroxime axetil, cefixime, cefpodoxime, cefotaxime, ceftazidime, ceftriaxone, netilmicine, tobramicine, ciprofloxcine, trim/sulfametox, esbl pos, SENSITIVE to meropenem and gentamicine, INTERMEDIATE to amikacine; • 8. 8.

[3] = test system: S. Aureus strain 2 (collection); test: MIC/MBC broth-dilution (micromethod), CLSI; format: cell-based; conditions: Staphylococcus aureus, marked *: MIC value read at 48 hours
Description: as §1, §2, §3, §4, §5

[4] = test system: Enterococcus faecalis strain 1 (collection); test: MIC/MBC broth-dilution (micromethod), CLSI; format: cell-based; conditions: E. FAECALIS strain 1, values without asterisk
Description: as §1, §2, §3, §4, §5

[5] = test system: Enterococcus faecalis ATCC 51299; test: MIC/MBC broth-dilution (micromethod), CLSI; format: cell-based; conditions: ATCC51299, E. FAECALIS ATCC 51299, values without asterisk
Description: as §1, §2, §3, §4, §5

S. Aureus ATCC 25923 = test: MIC/MBC broth-dilution (micromethod), CLSI; format: cell-based; conditions: Staphylococcus aureus, ATCC25923, marked *: MIC value read at 48 hours
Description: as §1, §2, §3, §4, §5

[6] = test system: P. Aeruginosa of collection; test: MIC/MBC broth-dilution (micromethod), CLSI; format: cell-based; conditions: Pseudomonas aeruginosa
Description: as §1, §2, §3, §4, §5

[7] = E. FAECALIS strain 2, marked *: MIC value read at 48 hours
[8] = marked *: MIC value read at 48 hours
[9] = E. FAECALIS strain 2, values without asterisk

| SMILES | MBC [1] [µg/mL] | MIC [1, 7] [µg/mL] | MBC [2] [µg/mL] | MIC ([2]; values without asterisk) [µg/mL] | MIC [2, 8] [µg/mL] | further results |
| --- | --- | --- | --- | --- | --- | --- |
| N#C/C(=C\c1ccc(-c2ccc(O)c(C34CC5CC(CC(C5)C3)C4)c2)cc1)C(=O)O [Compound 4] | 4 (≈ 10 µM) | 0.5 to 1 (≈ 1.25 to 2.5 µM) | 4 (≈ 10 µM) | 2 (≈ 5.01 µM) | – | – |
| N=C(N)NCc1cc(C=CC(=O)O)ccc1-c1ccc(O)c(C23CC4CC(CC(C4)C2)C3)c1.O=C(O)C(F)(F)F [Compound 15, 3-(3′-Adamantan-1-yl-2-guanidinomethyl-4′-hydroxy-biphenyl-4-yl)-acrylic acid trifluoroacetate] | 32 to 64 | 16 to 32 | 32 to 64 | – | 16 to 32 | – |
| N#C/C=C/c1ccc(-c2ccc(O)c(C34CC5CC(CC(C5)C3)C4)c2)cc1 (mixture of isomers) [Compound 1] | 128 | – | 128 | – | 64 to 128 | MIC [1, 9]: 32 µg/mL |
| O=C(O)/C=C/c1ccc(-c2ccc(OCC(=O)NO)c(C34CC5CC(CC(C5)C3)C4)c2)cc1 [Compound 9] | – | – | – | 128 (≈ 286 µM) | – | – |
| O=C(O)C=Cc1ccc(-c2ccc(OCCCCO)c(C34CC5CC(CC(C5)C3)C4)c2)cc1 [Compound 11, 3-[3′-Adamantan-1-yl-4′-(hydroxy-butoxy)-biphenyl-4-yl]-acrylic acid] | – | – | – | – | 64 to 256 (≈ 143 to 573 µM) | MIC [3]: 128 to 256 µg/mL (≈ 287 to 573 µM); MIC [1, 9]: 128 µg/mL (≈ 287 µM); MIC [4]: 128 µg/mL (≈ 287 µM); MIC [5]: 64 µg/mL (≈ 143 µM); MIC (S. Aureus ATCC 25923): 128 to 256 µg/mL (≈ 287 to 573 µM) |
| COc1ccc(-c2ccc(C#CC(=O)O)cc2)cc1C12CC3CC(CC(C3)C1)C2 [Compound 7, 4-(3-(1-adamantyl)-4-methoxyphenyl)propiolic acid] | – | – | – | 16 (≈ 41.4 µM) | – | – |
| CCCCC/C=C\C/C=C\CCCCCCCC(=O)Oc1ccc(-c2ccc(/C=C/C(=O)O)cc2)cc1C12CC3CC(CC(C3)C1)C2 [Compound 20, (E)-Octadeca-9,12-dienoic acid 3-adamantan-1-yl-40-(2-carboxyvinyl)-biphenyl-4-yl ester] | – | – | – | – | 8 to 32 (≈ 12.6 to 50.2 µM) | MIC [6]: 20 µg/mL (≈ 31.4 µM); MIC [1, 9]: 128 µg/mL (≈ 201 µM) |
| CC(=O)NCc1cc(-c2ccc(/C=C/C(=O)O)cc2)cc(C23CC4CC(CC(C4)C2)C3)c1O [Compound 17, E-3-[3′-(Acetylaminomethyl)-4′-hydroxy-5′-(adamantan-1-yl)biphenyl-4-yl]-acrylic acid] | 16 (≈ 35.9 µM) | 2 to 4 (≈ 4.49 to 8.98 µM) | 16 (≈ 35.9 µM) | – | 4 to 8 (≈ 8.98 to 18 µM) | – |
| O=C(O)CCc1ccc(-c2ccc(O)c(C34CC5CC(CC(C5)C3)C4)c2)cc1 [Compound 19, 3-(3′-Adamantan-1-yl-4′-hydroxybiphenyl-4-yl)propionic Acid] | 32 (≈ 85 µM) | 8 to 16 (≈ 21.2 to 42.5 µM) | 16 (≈ 42.5 µM) | – | 8 to 16 (≈ 21.2 to 42.5 µM) | – |
| O=C(O)/C=C/c1ccc(-c2cc(CNC(=O)Nc3ccccc3)c(O)c(C34CC5CC(CC(C5)C3)C4)c2)cc1 [Compound 18] | 16 (≈ 30.6 µM) | 2 to 4 (≈ 3.83 to 7.65 µM) | 8 (≈ 15.3 µM) | – | 4 to 8 (≈ 7.65 to 15.3 µM) | – |
| O=C(O)C=Cc1ccc(-c2cc3c(c(C45CC6CC(CC(C6)C4)C5)c2)OCCO3)cc1 [Compound 16, 3-{4-[8-(Adamantan-1-yl)-2,3-dihydro-benzo[1,4]-dioxin-6-yl]-phenyl}-acrylic acid] | – | 1 to 2 (≈ 2.4 to 4.8 µM) | – | – | 2 to 4 (≈ 4.8 to 9.6 µM) | – |
| O=Cc1cc(-c2ccc(/C=C/C(=O)O)cc2)cc(C23CC4CC(CC(C4)C2)C3)c1O [Compound 21, E-3-[3′-Formyl-4′-hydroxy-5′-(adamantan-1-yl)-biphenyl-4-yl]-acrylic acid] | – | 32 to 64 (≈ 79.5 to 159 µM) | – | – | 16 to 64 (≈ 39.8 to 159 µM) | – |
| O=C(O)C=Cc1ccc(-c2ccc(O)c(C34CC5CC(CC(C5)C3)C4)c2)c(C=NOCC(=O)O)c1 [Compound 14, 3-[3′-Adamant-1-yl-4′-hydroxy-2-carboxymethoxyiminomethyl-biphenyl-4-yl]-acrylic acid] | – | 64 to 128 (≈ 135 to 269 µM) | – | – | 64 to 128 (≈ 135 to 269 µM) | – |
| CC(C)(C)c1cc(-c2ccc(/C=C/C(=O)O)cc2)ccc1O [Compound 6, E-3-(3′-tert-Butyl-4′-hydroxybiphenyl-4-yl)acrylic Acid] | – | – | – | 64 (≈ 216 µM) | – | melting point: 218 °C |
| CC(Oc1ccc(-c2ccc(/C=C/C(=O)O)cc2)cc1C12CC3CC(CC(C3)C1)C2)C(=O)NO (stereo not drawn) [Compound 10] | – | – | – | 32 (≈ 69.3 µM) | – | – |
| OCC#Cc1ccc(-c2ccc(O)c(C34CC5CC(CC(C5)C3)C4)c2)cc1 [Compound 2, 3-(adamantan-1-yl)-4′-(3-hydroxyprop-1-yn-1-yl)-[1,1′-biphenyl]-4-ol] | 2 to 4 (≈ 5.58 to 11.2 µM) | – | 4 (≈ 11.2 µM) | 0.5 (≈ 1.39 µM) | – | MIC [1, 9]: 0.5 µg/mL (≈ 1.39 µM) |
